# According to US20230365592A1 (Agios Pharmaceuticals, Inc., priority 2022, published 2023):
# Biological target: T1, human PAH with the R408W mutation (Homo sapiens, UniProt P00439, R408W)
# T1 construct: expressed in transfected cells
# T1 sequence (P00439 1-452 R408W): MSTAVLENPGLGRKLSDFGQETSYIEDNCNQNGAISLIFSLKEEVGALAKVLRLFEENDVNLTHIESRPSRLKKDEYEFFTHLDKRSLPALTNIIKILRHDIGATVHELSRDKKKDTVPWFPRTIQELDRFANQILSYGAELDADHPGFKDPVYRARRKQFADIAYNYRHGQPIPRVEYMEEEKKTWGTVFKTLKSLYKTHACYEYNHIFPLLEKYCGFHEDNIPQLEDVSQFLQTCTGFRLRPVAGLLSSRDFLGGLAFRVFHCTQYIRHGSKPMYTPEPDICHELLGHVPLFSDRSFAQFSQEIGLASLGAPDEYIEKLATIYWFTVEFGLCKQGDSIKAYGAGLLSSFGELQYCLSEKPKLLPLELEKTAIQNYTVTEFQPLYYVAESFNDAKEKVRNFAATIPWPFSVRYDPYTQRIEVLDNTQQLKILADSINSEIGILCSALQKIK
# Experiment: Cell Based Phenylalanine Flux Assay;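 also: after compound treatment, cells received sepiapterin plus isotope-labelled Phenylalanine for 4 hours, then labelled Tyrosine in the medium was quantified, 10-point 2-fold dilution series run in duplicate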
# Conditions: A375 cells expressing human R408W PAH; 24 hrs compound incubation; 13C-Tyrosine by LC-MS; average where tested multiple times; read-out: AC50
row,AC50,SMILES
1,> 5000 nM,"O=C(c1nnc(-c2ccc(C(F)(F)F)cn2)o1)N1CCc2[nH]cnc2[C@@H]1c1cc2c(F)cccn2n1 [Example 878, (R)-(4-(4-fluoropyrazolo[1,5-a]pyridin-2-yl)-6,7-dihydro-1H-imidazo[4,5-c]pyridin-5(4H)-yl)(5-(5-(trifluoromethyl)pyridin-2-yl)-1,3,4-oxadiazol-2-yl)methanone]"
2,< 500 nM,"O=C(c1nnc(-c2ccc(C(F)(F)F)cn2)o1)N1CCc2[nH]cnc2[C@H]1c1cc2c(F)cccn2n1 [Example 879, (S)-(4-(4-fluoropyrazolo[1,5-a]pyridin-2-yl)-6,7-dihydro-1H-imidazo[4,5-c]pyridin-5(4H)-yl)(5-(5-(trifluoromethyl)pyridin-2-yl)-1,3,4-oxadiazol-2-yl)methanone]"
3,> 5000 nM,"O=C(c1nnc(-c2ccc(F)cn2)o1)N1CCc2[nH]cnc2[C@@H]1c1cc2c(F)cccn2n1 [Example 880, (R)-(4-(4-fluoropyrazolo[1,5-a]pyridin-2-yl)-6,7-dihydro-1H-imidazo[4,5-c]pyridin-5(4H)-yl)(5-(5-fluoropyridin-2-yl)-1,3,4-oxadiazol-2-yl)methanone]"
4,< 500 nM,"O=C(c1nnc(-c2ccc(F)cn2)o1)N1CCc2[nH]cnc2[C@H]1c1cc2c(F)cccn2n1 [Example 881, (S)-(4-(4-fluoropyrazolo[1,5-a]pyridin-2-yl)-6,7-dihydro-1H-imidazo[4,5-c]pyridin-5(4H)-yl)(5-(5-fluoropyridin-2-yl)-1,3,4-oxadiazol-2-yl)methanone]"
5,> 5000 nM,"Cc1cc(-c2nnc(C(=O)N3CCc4[nH]cnc4[C@@H]3c3cc4c(F)cccn4n3)o2)nn1C [Example 882, (R)-(5-(1,5-dimethyl-1H-pyrazol-3-yl)-1,3,4-oxadiazol-2-yl)(4-(4-fluoropyrazolo[1,5-a]pyridin-2-yl)-6,7-dihydro-1H-imidazo[4,5-c]pyridin-5(4H)-yl)methanone]"
6,500 to 1000 nM,"Cn1nccc1C(=O)N1CCc2[nH]cnc2[C@H]1c1cc2c(F)cccn2n1 [Example 884, (S)-(4-(4-fluoropyrazolo[1,5-a]pyridin-2-yl)-6,7-dihydro-1H-imidazo[4,5-c]pyridin-5(4H)-yl)(1-methyl-1H-pyrazol-5-yl)methanone]"
7,< 500 nM,"COc1cccn2nc([C@@H]3c4nc[nH]c4CCN3C(=O)c3cc(C(F)F)nn3C)cc12 [Example 886, (S)-(3-(difluoromethyl)-1-methyl-1H-pyrazol-5-yl)(4-(4-methoxypyrazolo[1,5-a]pyridin-2-yl)-6,7-dihydro-1H-imidazo[4,5-c]pyridin-5(4H)-yl)methanone]"
8,> 5000 nM,"COc1cccn2nc([C@H]3c4nc[nH]c4CCN3C(=O)c3cc(C(F)F)nn3C)cc12 [Example 887, (R)-(3-(difluoromethyl)-1-methyl-1H-pyrazol-5-yl)(4-(4-methoxypyrazolo[1,5-a]pyridin-2-yl)-6,7-dihydro-1H-imidazo[4,5-c]pyridin-5(4H)-yl)methanone]"
9,> 5000 nM,"Cn1cncc1-c1nc(C(F)F)c(C(=O)N2CCc3[nH]cnc3[C@@H]2c2cc3c(F)cccn3n2)o1 [Example 888, (R)-(4-(difluoromethyl)-2-(1-methyl-1H-imidazol-5-yl)oxazol-5-yl)(4-(4-fluoropyrazolo[1,5-a]pyridin-2-yl)-6,7-dihydro-1H-imidazo[4,5-c]pyridin-5(4H)-yl)methanone]"
10,500 to 1000 nM,"Cn1cncc1-c1nc(C(F)F)c(C(=O)N2CCc3[nH]cnc3[C@H]2c2cc3c(F)cccn3n2)o1 [Example 889, (S)-(4-(difluoromethyl)-2-(1-methyl-1H-imidazol-5-yl)oxazol-5-yl)(4-(4-fluoropyrazolo[1,5-a]pyridin-2-yl)-6,7-dihydro-1H-imidazo[4,5-c]pyridin-5(4H)-yl)methanone]"
11,> 5000 nM,"Cc1cccn2nc([C@H]3c4nc[nH]c4CCN3C(=O)c3oc(-c4cncn4C)nc3C(F)F)cc12 [Example 890, (R)-(4-(difluoromethyl)-2-(1-methyl-1H-imidazol-5-yl)oxazol-5-yl)(4-(4-methylpyrazolo[1,5-a]pyridin-2-yl)-6,7-dihydro-1H-imidazo[4,5-c]pyridin-5(4H)-yl)methanone]"
12,< 500 nM,"Cc1cccn2nc([C@@H]3c4nc[nH]c4CCN3C(=O)c3oc(-c4cncn4C)nc3C(F)F)cc12 [Example 891, (S)-(4-(difluoromethyl)-2-(1-methyl-1H-imidazol-5-yl)oxazol-5-yl)(4-(4-methylpyrazolo[1,5-a]pyridin-2-yl)-6,7-dihydro-1H-imidazo[4,5-c]pyridin-5(4H)-yl)methanone]"
13,< 500 nM,"Cc1cc(C(=O)N2CCc3[nH]cnc3[C@H]2c2cc3ccccn3n2)n(C)n1 [Example 892, (S)-(1,3-dimethyl-1H-pyrazol-5-yl)(4-(pyrazolo[1,5-a]pyridin-2-yl)-6,7-dihydro-1H-imidazo[4,5-c]pyridin-5(4H)-yl)methanone]"
14,> 5000 nM,"Cc1cccn2nc([C@H]3c4nc[nH]c4CCN3C(=O)c3nnc(-c4cccnc4)o3)cc12 [Example 895, (R)-(4-(4-methylpyrazolo[1,5-a]pyridin-2-yl)-6,7-dihydro-1H-imidazo[4,5-c]pyridin-5(4H)-yl)(5-(pyridin-3-yl)-1,3,4-oxadiazol-2-yl)methanone]"
15,< 500 nM,"O=C(c1nnc(-c2cccnc2)o1)N1CCc2[nH]cnc2[C@H]1c1cc2c(F)cccn2n1 [Example 896, (S)-(4-(4-fluoropyrazolo[1,5-a]pyridin-2-yl)-6,7-dihydro-1H-imidazo[4,5-c]pyridin-5(4H)-yl)(5-(pyridin-3-yl)-1,3,4-oxadiazol-2-yl)methanone]"
16,> 5000 nM,"O=C(c1nnc(-c2cccnc2)o1)N1CCc2[nH]cnc2[C@@H]1c1cc2c(F)cccn2n1 [Example 897, (R)-(4-(4-fluoropyrazolo[1,5-a]pyridin-2-yl)-6,7-dihydro-1H-imidazo[4,5-c]pyridin-5(4H)-yl)(5-(pyridin-3-yl)-1,3,4-oxadiazol-2-yl)methanone]"
17,< 500 nM,"COc1cccn2nc([C@@H]3c4nc[nH]c4CCN3C(=O)c3ccnn3-c3ccccn3)cc12 [Example 898, (S)-(4-(4-methoxypyrazolo[1,5-a]pyridin-2-yl)-6,7-dihydro-1H-imidazo[4,5-c]pyridin-5(4H)-yl)(1-(pyridin-2-yl)-1H-pyrazol-5-yl)methanone]"
18,< 500 nM,"Cc1cc(C(=O)N2CCc3[nH]cnc3[C@H]2c2cc3c(C)cccn3n2)n(C)n1 [Example 900, (S)-(1,3-dimethyl-1H-pyrazol-5-yl)(4-(4-methylpyrazolo[1,5-a]pyridin-2-yl)-6,7-dihydro-1H-imidazo[4,5-c]pyridin-5(4H)-yl)methanone]"
19,> 5000 nM,"Cc1cc(C(=O)N2CCc3[nH]cnc3[C@@H]2c2cc3c(C)cccn3n2)n(C)n1 [Example 901, (R)-(1,3-dimethyl-1H-pyrazol-5-yl)(4-(4-methylpyrazolo[1,5-a]pyridin-2-yl)-6,7-dihydro-1H-imidazo[4,5-c]pyridin-5(4H)-yl)methanone]"
20,< 500 nM,"Cn1cc(-c2nc(C(F)F)c(C(=O)N3CCc4[nH]cnc4[C@H]3c3cc4c(F)cccn4n3)o2)cn1 [Example 902, (S)-(4-(difluoromethyl)-2-(1-methyl-1H-pyrazol-4-yl)oxazol-5-yl)(4-(4-fluoropyrazolo[1,5-a]pyridin-2-yl)-6,7-dihydro-1H-imidazo[4,5-c]pyridin-5(4H)-yl)methanone]"
21,1000 to 5000 nM,"Cn1cc(-c2nc(C(F)F)c(C(=O)N3CCc4[nH]cnc4[C@@H]3c3cc4c(F)cccn4n3)o2)cn1 [Example 903, (R)-(4-(difluoromethyl)-2-(1-methyl-1H-pyrazol-4-yl)oxazol-5-yl)(4-(4-fluoropyrazolo[1,5-a]pyridin-2-yl)-6,7-dihydro-1H-imidazo[4,5-c]pyridin-5(4H)-yl)methanone]"
22,> 5000 nM,"O=C(c1nnc(-c2ncccc2F)o1)N1CCc2[nH]cnc2[C@@H]1c1cc2c(C(F)(F)F)cccn2n1 [Example 904, (R)-(5-(3-fluoropyridin-2-yl)-1,3,4-oxadiazol-2-yl)(4-(4-(trifluoromethyl)pyrazolo[1,5-a]pyridin-2-yl)-6,7-dihydro-1H-imidazo[4,5-c]pyridin-5(4H)-yl)methanone]"
23,< 500 nM,"O=C(c1nnc(-c2ncccc2F)o1)N1CCc2[nH]cnc2[C@H]1c1cc2c(C(F)(F)F)cccn2n1 [Example 905, (S)-(5-(3-fluoropyridin-2-yl)-1,3,4-oxadiazol-2-yl)(4-(4-(trifluoromethyl)pyrazolo[1,5-a]pyridin-2-yl)-6,7-dihydro-1H-imidazo[4,5-c]pyridin-5(4H)-yl)methanone]"
24,< 500 nM,"O=C(c1nnc(-c2cnn(C(F)F)c2)o1)N1CCc2[nH]cnc2[C@H]1c1cc2c(C(F)(F)F)cccn2n1 [Example 906, (S)-(5-(1-(difluoromethyl)-1H-pyrazol-4-yl)-1,3,4-oxadiazol-2-yl)(4-(4-(trifluoromethyl)pyrazolo[1,5-a]pyridin-2-yl)-6,7-dihydro-1H-imidazo[4,5-c]pyridin-5(4H)-yl)methanone]"
25,> 5000 nM,"O=C(c1nnc(-c2cnn(C(F)F)c2)o1)N1CCc2[nH]cnc2[C@@H]1c1cc2c(C(F)(F)F)cccn2n1 [Example 907, (R)-(5-(1-(difluoromethyl)-1H-pyrazol-4-yl)-1,3,4-oxadiazol-2-yl)(4-(4-(trifluoromethyl)pyrazolo[1,5-a]pyridin-2-yl)-6,7-dihydro-1H-imidazo[4,5-c]pyridin-5(4H)-yl)methanone]"
